PubChem BioAssay (NCI)
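Grown in 96-well plates, cells were treated for 48 hours with each compound at five concentrations. Insufficient inhibition: endpoint recorded as highest concentration tested. The concentration for 50% growth inhibition is given as GI50. Definition used: TGI = concentration required for complete inhibition of growth.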

Legend:
Assay in all cases: DTP human tumour cell line panel, 48 h
[1] = system: MDA-N
[2] = system: DMS 114 small cell lung
[3] = system: LXFL 529 NSCLC
[4] = system: SNB-78 CNS
[5] = system: HOP-18 NSCLC
[6] = system: RXF-631 renal
[7] = system: XF 498 CNS

Compound	TGI [1] [µM]	TGI [2] [µM]	TGI [3] [µM]	TGI [4] [µM]	TGI [5] [µM]	TGI [6] [µM]	TGI [7] [µM]	GI50 [1] [µM]
N=C1N=Nc2nc(C3(c4nc5n(c4O)C(=N)N=N5)Cc4ccccc4C3=O)c(O)n21 (stereo not drawn)	> 100							
COC(=O)[C@]1(C)CCC[C@]2(C)C3CC4OOC3(C=C4C(C)C)CCC21 (stereo partly drawn)		28	27.2	32.3				
C=C1CCC2C(C)(CO)C(O)CCC2(C)C1CC(O)C1=CCOC1=O (stereo not drawn)		> 100	> 100		> 100	> 100		
COc1ccc2c(c1)N(CCC1CCCCN1C)c1ccccc1S2 (stereo not drawn)	25.7							
N#Cc1ccccc1/C=N/O		> 100	> 100	> 100	> 100		> 100	
CCCN1CN(C(C(=O)N[C@@H]2C(=O)N3C(C(=O)O)=C(C)CSC23)c2ccccc2)CSC1=S (stereo partly drawn)			> 100	> 100	> 100			
C/C(CC(=O)Nc1ccc([N+](=O)[O-])cc1)=N/N=C(N)N		> 100	> 100	> 100		> 100	> 100	
O=C(Nc1ccc(Cl)cc1Cl)/C(Cl)=C1/Sc2ccccc2NC1=O		80	> 100	> 100			40.5	
Cc1ccc(S(=O)(=O)NC(=O)Nc2nc(Cl)cc(Cl)n2)cc1		> 100	> 100	> 100	> 100	> 100	> 100	
O=c1nc2[nH]nc(-c3ccccc3)c2n[nH]1		> 100	> 100	> 100				
C=CCn1c(=S)sc2c(=O)[nH]cnc21		> 100	> 100	> 100			> 100	
Cn1c2ccccc2c(=S)c2cc(NC(=O)CCCCC(=O)Nc3ccc4c(c3)c(=S)c3ccccc3n4C)ccc21	> 100							
Cc1ccccc1C(C#N)/C(=N/NC(=O)C(=O)NN)C(=O)Nc1cccc(C(F)(F)F)c1 (stereo not drawn)		> 100	> 100	> 100	> 100	> 100		
COc1cc([C@@H]2c3cc4c(cc3[C@@H](NC(=O)c3ccc([N+](=O)[O-])cc3)C3COC(=O)[C@@H]32)OCO4)cc(OC)c1O (stereo partly drawn)		2.35	> 100	75.5	> 100	4.48	0.964	
C/C(CN1C(=O)c2ccccc2C1=O)=N\NS(C)(=O)=O		> 100	> 100	> 100	> 100		> 100	
O=CN/C=C/c1ccccc1O		> 100	> 100	> 100	> 100			
O=C(O)C#Cc1ccc([N+](=O)[O-])cc1	> 100							

Compound	TGI [1] [µM]	TGI [2] [µM]	TGI [3] [µM]	TGI [4] [µM]	TGI [5] [µM]	TGI [6] [µM]	TGI [7] [µM]	GI50 [1] [µM]
Cn1c(C2CC(C)(C)c3c2c2ccccc2n3C)cc2ccccc21 (stereo not drawn)		> 304	> 304				> 304	
O=C1CSc2ccncc2N1		> 100	> 100				> 100	
Cn1c(-c2ccccc2)c/c(=N\NS(C)(=O)=O)c2cc(S(=O)(=O)O)ccc21		> 100	> 100	> 100	> 100		> 100	
COC(=O)c1c/c(=N\NC(=O)CC(=O)Nc2ccc(C)cc2)c2ccccc2o1		> 100	> 100	> 100	> 100		> 100	
COC(=O)c1cc(O)ccc1NC(=O)c1ccc(O)cc1		> 100	> 100	> 100	> 100	> 100	> 100	
O=C1CC23CC(=O)CC2(C1)c1ccccc1C3=O (stereo not drawn)		> 100	> 100	> 100	> 100		> 100	
FC(F)(F)c1ccccc1C=NC12CC3CC(CC(C3)C1)C2		> 100		> 100			> 100	
COC(=O)C1CCc2nnc(-c3cccnc3)n21 (stereo not drawn)		> 100	> 100	> 100	> 100	> 100		
NC(CCCNCc1ccccc1O)C(=O)O (stereo not drawn)		> 100	> 100	> 100	> 100			
Clc1ccc(CCn2cncn2)c(Cl)c1		> 100	> 100	> 100	> 100			
COc1ccc(OC)c(/C=C/c2cnnc3ccccc23)c1	2.5							
COC(=O)/C(Cl)=C1/CC1COCc1ccccc1 (stereo not drawn)		81.2	31.1	> 100			58.4	
O=S(=O)(c1ccccc1)C1CN(Cc2ccccc2)CCN(Cc2ccccc2)C1	59.5	> 100	> 100				63	
COC1(C)Cc2c(c(C)c(O)c3c2C(=O)C=C(Cl)C3=O)O1 (stereo not drawn)	> 100	76.6	28.9				> 56.4	
O=C1[C@H](c2ccccc2)C2c3ccccc3CCN12 (stereo partly drawn)	> 100							> 100
CC1=NN(c2ccccc2)C(=O)C1C(=O)C(=O)Nc1ccc(C)cc1C (stereo not drawn)		> 100	> 100	> 100	> 100			
[O-][N+]1=C(c2ccccc2)COc2ccccc21		> 100	> 100	> 100	> 100	> 100		
